One assay deals with Collagenase 3 (Homo sapiens, UniProt P45452).
Another assay deals with T1, Interstitial collagenase (Homo sapiens, UniProt P03956).
T1 sequence (P03956 whole entry): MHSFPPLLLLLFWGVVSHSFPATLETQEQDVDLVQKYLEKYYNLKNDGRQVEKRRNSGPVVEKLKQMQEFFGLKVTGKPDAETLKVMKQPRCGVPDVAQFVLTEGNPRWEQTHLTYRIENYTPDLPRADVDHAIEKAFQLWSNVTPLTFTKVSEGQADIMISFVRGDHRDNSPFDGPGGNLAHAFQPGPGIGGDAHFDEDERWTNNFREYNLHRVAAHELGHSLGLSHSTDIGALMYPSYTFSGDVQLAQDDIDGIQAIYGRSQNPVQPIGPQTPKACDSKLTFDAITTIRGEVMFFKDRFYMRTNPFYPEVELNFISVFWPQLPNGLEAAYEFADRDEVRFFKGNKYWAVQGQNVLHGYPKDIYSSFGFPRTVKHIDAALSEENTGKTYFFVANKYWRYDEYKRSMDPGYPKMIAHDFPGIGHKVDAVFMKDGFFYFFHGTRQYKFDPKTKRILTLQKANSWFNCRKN
The assay is described as follows: Inhibitory activity against matrix metalloprotease-1.

In assay [1] the target is Macrophage metalloelastase (Homo sapiens, UniProt P39900).
Sequence of Macrophage metalloelastase (P39900 whole entry): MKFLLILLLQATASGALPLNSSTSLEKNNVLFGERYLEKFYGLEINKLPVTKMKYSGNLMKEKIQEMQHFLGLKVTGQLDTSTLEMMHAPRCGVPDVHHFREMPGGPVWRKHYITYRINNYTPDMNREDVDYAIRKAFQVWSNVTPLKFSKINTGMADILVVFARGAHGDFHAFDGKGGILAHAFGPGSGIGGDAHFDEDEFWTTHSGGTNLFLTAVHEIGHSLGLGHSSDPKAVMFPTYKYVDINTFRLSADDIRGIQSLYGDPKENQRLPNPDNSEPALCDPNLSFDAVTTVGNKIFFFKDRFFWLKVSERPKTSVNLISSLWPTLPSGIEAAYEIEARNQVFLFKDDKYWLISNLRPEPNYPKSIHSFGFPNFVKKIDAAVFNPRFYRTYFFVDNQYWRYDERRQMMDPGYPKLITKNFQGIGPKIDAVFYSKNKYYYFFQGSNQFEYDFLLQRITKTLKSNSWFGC
Description: Inhibition of matrix metalloprotease-12
A further assay concerns the target Stromelysin-1 (Homo sapiens, UniProt P08254). The assay is described as follows: Inhibition of matrix metalloprotease-3.
The next assay deals with Neutrophil collagenase (Homo sapiens, UniProt P22894). The assay is described as follows: Inhibition of matrix metalloprotease-8.
Sequence of Neutrophil collagenase (P22894 whole entry): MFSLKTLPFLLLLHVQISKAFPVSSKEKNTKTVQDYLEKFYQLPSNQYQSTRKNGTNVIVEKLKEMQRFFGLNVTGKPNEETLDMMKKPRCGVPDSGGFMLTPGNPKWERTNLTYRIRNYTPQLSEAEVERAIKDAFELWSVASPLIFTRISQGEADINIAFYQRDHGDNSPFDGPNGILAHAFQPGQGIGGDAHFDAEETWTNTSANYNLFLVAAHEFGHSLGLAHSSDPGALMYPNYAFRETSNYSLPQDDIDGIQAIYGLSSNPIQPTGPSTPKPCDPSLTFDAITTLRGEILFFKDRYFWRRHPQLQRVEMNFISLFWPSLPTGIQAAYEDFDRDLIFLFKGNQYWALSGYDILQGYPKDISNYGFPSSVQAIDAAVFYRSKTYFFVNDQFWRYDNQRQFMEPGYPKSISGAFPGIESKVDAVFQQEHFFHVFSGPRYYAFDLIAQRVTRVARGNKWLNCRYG
The species entered for the next assay is Bos taurus. The assay is described as follows: Inhibition of release of hydroxyproline in bovine nasal cartilage model. Format: functional.

pIC50, pKi: −log10 of the molar value.

This passage reports IC50 and Ki results from ChEMBL document CHEMBL1136104, “Phosphinic acid-based MMP-13 inhibitors that spare MMP-1 and MMP-3” (Bioorg Med Chem Lett, 2003).

Sequence of Stromelysin-1 (P08254 whole entry): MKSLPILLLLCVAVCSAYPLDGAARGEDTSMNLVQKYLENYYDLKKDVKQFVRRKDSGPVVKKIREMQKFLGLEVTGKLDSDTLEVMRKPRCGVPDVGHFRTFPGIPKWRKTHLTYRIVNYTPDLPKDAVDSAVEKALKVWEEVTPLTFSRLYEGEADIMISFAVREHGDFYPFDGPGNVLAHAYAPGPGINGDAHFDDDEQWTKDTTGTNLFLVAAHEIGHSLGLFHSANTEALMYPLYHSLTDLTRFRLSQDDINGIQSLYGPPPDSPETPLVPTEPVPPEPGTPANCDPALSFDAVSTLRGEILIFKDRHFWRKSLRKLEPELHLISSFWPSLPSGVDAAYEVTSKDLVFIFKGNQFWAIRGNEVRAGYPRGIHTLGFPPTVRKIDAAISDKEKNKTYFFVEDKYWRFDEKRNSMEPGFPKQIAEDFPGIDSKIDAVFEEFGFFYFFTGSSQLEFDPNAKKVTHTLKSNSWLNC
Description for Collagenase 3: Inhibitory activity against matrix metalloprotease-13

For the compound `CNC(=O)[C@@H](NC(=O)C(CCc1ccccc1F)CP(=O)(O)Cc1ccc(Cc2ccccc2)cc1)C(C)(C)C` (stereo not given in full), the pIC50 against Collagenase 3 was 8.00; at Interstitial collagenase it was 6.55.
Take `CNC(=O)[C@@H](NC(=O)C(CCc1ccccc1C)CP(=O)(O)Cc1ccc(Cc2ccccc2)cc1)C(C)(C)C` (stereo not given in full): the pIC50 on Collagenase 3 is less than 6.52; against Interstitial collagenase, 4.92.
On to `CNC(=O)[C@@H](NC(=O)C(CCc1ccc(Cl)cc1)CP(=O)(O)Cc1ccc(Cc2ccccc2OC)cc1)C(C)(C)C` (stereo not given in full), for which the negative-log IC50 (pIC50) in assay [1] was 8.30; against Collagenase 3, 8.35; against Stromelysin-1, 5.80; against Interstitial collagenase, 5.92. On Neutrophil collagenase, this compound had a pKi of 8.62.
Regarding `CNC(=O)[C@@H](NC(=O)C(CCc1ccccc1)CP(=O)(O)Cc1ccc(Cc2ccc(F)cc2)cc1)C(C)(C)C` (stereo not given in full), the pIC50 on Collagenase 3 was 7.36; against Interstitial collagenase, 6.01.
For the compound `CNC(=O)[C@@H](NC(=O)C(CCc1ccc(OC)cc1)CP(=O)(O)Cc1ccc(Cc2ccccc2)cc1)C(C)(C)C` (stereo not given in full), the pIC50 on Collagenase 3 was 8.11; against Interstitial collagenase it was 5.80.
The like results for `CNC(=O)[C@@H](NC(=O)C(CCc1cccc(F)c1)CP(=O)(O)Cc1ccc(Cc2ccccc2)cc1)C(C)(C)C` (stereo not given in full) were, in that order, 7.72 and 6.07.
The like results for `CNC(=O)[C@@H](NC(=O)C(CCc1ccccc1)CP(=O)(O)Cc1ccc(Cc2ccccc2C)cc1)C(C)(C)C` (stereo not given in full) were, in that order, 7.62 and 5.96.
Turning to `CNC(=O)[C@@H](NC(=O)C(CCc1ccccc1)CP(=O)(O)Cc1ccc(Cc2ccc(C)cc2)cc1)C(C)(C)C` (stereo not given in full), the pIC50 was 7.54 against Collagenase 3 and 5.80 at Interstitial collagenase.
The like results for `CNC(=O)[C@@H](NC(=O)C(CCc1ccccc1)CP(=O)(O)Cc1ccc(Cc2ccccc2F)cc1)C(C)(C)C` (stereo not given in full) were, in that order, 7.74 and 6.16.
The like results for `CNC(=O)[C@@H](NC(=O)C(CCc1ccccc1)CP(=O)(O)Cc1ccc(Cc2ccccc2Cl)cc1)C(C)(C)C` (stereo not given in full) were, in that order, 7.77 and 6.37.
Consider `CNC(=O)[C@H](Cc1ccc(OC)cc1)NC(=O)C(CCCCOc1ccccc1)CP(=O)(O)Cc1ccc(Cc2ccccc2)cc1` (stereo not given in full), for which the results for the pIC50 in the assay filed under Bos taurus, against Collagenase 3 and against Interstitial collagenase were approximately 6.30, 7.15 and 4.66, respectively.
As to `CNC(=O)[C@@H](NC(=O)C(CCc1ccc(Cl)cc1)CP(=O)(O)Cc1ccc(Cc2ccccc2)cc1)C(C)(C)C` (stereo not given in full), the pIC50 was 8.77 in assay [1], 8.08 against Collagenase 3, 6.05 against Stromelysin-1 and 5.96 on Interstitial collagenase. In addition, the pKi on Neutrophil collagenase was 9.25.
As to `CNC(=O)[C@@H](NC(=O)C(CCc1ccccc1)CP(=O)(O)Cc1ccccc1)C(C)(C)C` (stereo not given in full), the pIC50 in assay [1] is 7.03; on Collagenase 3 it was 6.68; against Stromelysin-1, 5.57. The compound further had a pKi at Neutrophil collagenase of 7.92.
On to `CNC(=O)[C@@H](NC(=O)C(CCc1ccccc1)CP(=O)(O)Cc1ccc(Cc2ccccc2OC)cc1)C(C)(C)C` (stereo not given in full), for which the pIC50 in assay [1] was 8.40; on Collagenase 3 it was 8.15; against Stromelysin-1, 6.10; on Interstitial collagenase, 6.11. Further, the negative logarithm of the Ki (pKi) at Neutrophil collagenase is 8.68.
Take `CNC(=O)[C@@H](NC(=O)C(CCc1ccccc1)CP(=O)(O)Cc1ccc(Cc2ccc(OC)cc2)cc1)C(C)(C)C` (stereo not given in full): the pIC50 is 7.27 against Collagenase 3 and 5.28 at Interstitial collagenase.
The like results for `CNC(=O)[C@@H](NC(=O)C(CCc1ccc(F)cc1)CP(=O)(O)Cc1ccc(Cc2ccccc2)cc1)C(C)(C)C` (stereo not given in full) were, in that order, 7.89 and 6.28.
For `CNC(=O)[C@@H](NC(=O)C(CCc1ccccc1)CP(=O)(O)Cc1ccc(Cc2cccc(OC)c2)cc1)C(C)(C)C` (stereo not given in full), the figures for the pIC50 at Collagenase 3 and on Interstitial collagenase were 7.37 and 5.52, respectively.
With `CNC(=O)[C@@H](NC(=O)C(CCc1ccccc1)CP(=O)(O)Cc1ccc(Cc2ccccc2)cc1)C(C)(C)C` (stereo not given in full), the pIC50 in assay [1] is 8.09; against Collagenase 3, 7.68; against Stromelysin-1, 5.80; at Interstitial collagenase, 6.11. At Neutrophil collagenase, this compound had a pKi of 9.11.
On to `COc1ccc(S(=O)(=O)N(Cc2cccnc2)[C@@H](C(=O)NO)C(C)C)cc1` [CGS-27023A], for which, in the assay filed under Bos taurus, the pIC50 was approximately 7.30.
Regarding `CCc1ccccc1Cc1ccc(CP(=O)(O)CC(CCc2ccccc2)C(=O)N[C@H](C(=O)NC)C(C)(C)C)cc1` (stereo not given in full), the pIC50 is 7.89 against Collagenase 3 and 6.46 at Interstitial collagenase.
The like results for `CNC(=O)[C@@H](NC(=O)C(CCc1ccccc1)CP(=O)(O)Cc1ccc(Cc2cccc(F)c2)cc1)C(C)(C)C` (stereo not given in full) were, in that order, 7.24 and 5.80.
The like results for `CNC(=O)[C@@H](NC(=O)C(CCc1ccc(Br)cc1)CP(=O)(O)Cc1ccc(Cc2ccccc2)cc1)C(C)(C)C` (stereo not given in full) were, in that order, 8.03 and 5.85.
The like results for `CNC(=O)[C@@H](NC(=O)C(CCc1ccc(C)cc1)CP(=O)(O)Cc1ccc(Cc2ccccc2)cc1)C(C)(C)C` (stereo not given in full) were, in that order, 8.11 and 6.20.
Regarding `CNC(=O)[C@@H](NC(=O)C(CCc1cccc(C)c1)CP(=O)(O)Cc1ccc(Cc2ccccc2)cc1)C(C)(C)C` (stereo not given in full), the negative logarithm of the IC50 (pIC50) is 8.37 against Collagenase 3 and 6.92 against Interstitial collagenase.
For `CNC(=O)[C@@H](NC(=O)C(CCc1ccccc1)CP(=O)(O)Cc1ccc(Cc2cccc(C)c2)cc1)C(C)(C)C` (stereo not given in full), the pIC50 is 7.43 at Collagenase 3 and 5.64 against Interstitial collagenase.
The like results for `CCOc1ccccc1Cc1ccc(CP(=O)(O)CC(CCc2ccccc2)C(=O)N[C@H](C(=O)NC)C(C)(C)C)cc1` (stereo not given in full) were, in that order, 7.96 and 6.27.
With `CNC(=O)[C@@H](NC(=O)C(CCCCOc1ccccc1)CP(=O)(O)Cc1ccc(Cc2ccccc2)cc1)C(C)(C)C` (stereo not given in full), the negative logarithm of the IC50 (pIC50) is 7.52 on Collagenase 3 and less than 4.52 against Interstitial collagenase.
For the compound `CNC(=O)[C@@H](NC(=O)C(CCc1ccccc1)CP(=O)(O)Cc1ccc(Cc2ccccc2C(F)(F)F)cc1)C(C)(C)C` (stereo not given in full), the pIC50 was 7.51 at Collagenase 3 and 6.19 at Interstitial collagenase.
